Laboratory results as given in patent US3986862A, “Emulsifiable liquid concentrates containing 4-amino-6-t-butyl-3-(methylthio)-1,2,4-triazin-5-one and 2-chloro-N-(2,6-diethylphenyl)-N-methoxymethylacetamide” (E. I. Du Pont de Nemours and Company, priority 1974, dated 1976).

Format: physicochemical
Procedure: The unexpected solvent synergism between alachlor, metribuzin and chlorobenzene is illustrated in the Table below. […] When metribuzin is the only material in chlorobenzene only 4% can be held in solution at -6° C. This is equivalent to about 0.35 lbs. metrubuzin/gallon. Solutions more concentrated than that could not be stored at the commercially important warehousing conditions at or near the conventional freezing temperatures (32° F. or 0° C.). […] These concentrations represent 0.8 lbs. of metribuzin and 3.2 lbs. of alachlor per gallon.
SOLUBILITY OF METRIBUZIN AT LOW TEMPERATURES IN
LASSO* AND/OR CHLOROBENZENE

[1] = metribuzin the only material in chlorobenzene, at -6° C.

CSc1nnc(C(C)(C)C)c(=O)n1N [Metribuzin, 4-amino-6-t-butyl-3-(methylthio)-1,2,4-triazin-5-one]
Incipient Crystallization Temperature (4% metribuzin, 0% alachlor, solvent chlorobenzene): -6 °C | amount of metribuzin that can be held in solution [1]: 4% | amount of metribuzin that can be held in solution, equivalent [1]: about 0.35 lbs. metrubuzin/gallon
